Assay: xn = mol fraction of the nth substance listed
Details: 101 kPa, Liquid, Vibrating tube method

CCCCCCCCC [nonane] + CCCCCCCC
mass density [kg/m3]
Details	x2 = 0.1017	x2 = 0.2023	x2 = 0.3016	x2 = 0.4	x2 = 0.4987	x2 = 0.6006	x2 = 0.7002	x2 = 0.7986	x2 = 0.8989
273.15 K	731.51	730.03	728.78	727.43	725.78	724.52	722.97	721.5	719.99
278.15 K	727.69	726.2	724.94	723.57	721.91	720.65	719.08	717.59	716.07
283.15 K	723.84	722.35	721.07	719.7	718.01	716.75	715.16	713.66	712.12
288.15 K	719.99	718.48	717.19	715.8	714.11	712.83	711.22	709.71	708.16
293.15 K	716.12	714.6	713.29	711.9	710.18	708.9	707.27	705.75	704.18
298.15 K	712.24	710.7	709.38	707.97	706.24	704.95	703.31	701.76	700.18
303.15 K	708.34	706.79	705.46	704.03	702.28	700.97	699.32	697.75	696.15
308.15 K	704.41	702.86	701.51	700.07	698.3	696.98	695.31	693.73	692.11
313.15 K	700.48	698.9	697.54	696.08	694.3	692.97	691.28	689.68	688.04
318.15 K	696.52	694.93	693.55	692.08	690.27	688.92	687.22	685.6	683.95
323.15 K	692.53	690.93	689.53	688.05	686.22	684.87	683.14	681.5	679.83
328.15 K	688.53	686.91	685.49	683.99	682.15	680.78	679.03	677.37	675.69
333.15 K	684.5	682.86	681.43	679.91	678.05	676.66	674.89	673.22	671.51
338.15 K	680.44	678.78	677.34	675.8	673.91	672.5	670.73	669.03	667.3
343.15 K	676.36	674.68	673.22	671.66	669.75	668.33	666.53	664.81	663.06
348.15 K	672.25	670.55	669.07	667.5	665.56	664.12	662.3	660.56	658.78
353.15 K	668.11	666.39	664.88	663.29	661.33	659.87	658.02	656.27	654.47
358.15 K	663.93	662.18	660.67	659.05	657.07	655.6	653.72	651.94	650.1
363.15 K	659.72	657.95	656.41	654.78	652.77	651.27	649.36	647.56	645.72
